The values that follow are results of earlier work, collected in PMC6241861 (International Journal of Nanomedicine, 2018).

In series [1] the target is T1, human neutrophil elastase (Homo sapiens, UniProt P08246).
T1 sequence (P08246 30-267): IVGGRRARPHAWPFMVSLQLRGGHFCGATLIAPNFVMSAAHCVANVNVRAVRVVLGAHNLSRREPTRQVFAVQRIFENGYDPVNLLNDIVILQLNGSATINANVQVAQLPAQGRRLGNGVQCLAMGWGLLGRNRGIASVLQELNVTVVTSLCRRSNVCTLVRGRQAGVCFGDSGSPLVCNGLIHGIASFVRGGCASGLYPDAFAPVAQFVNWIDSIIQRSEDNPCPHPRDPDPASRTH

In series [2] the target is Pseudomonas aeruginosa elastase (Pseudomonas aeruginosa, UniProt P14756).
Pseudomonas aeruginosa elastase, sequence (P14756 198-498): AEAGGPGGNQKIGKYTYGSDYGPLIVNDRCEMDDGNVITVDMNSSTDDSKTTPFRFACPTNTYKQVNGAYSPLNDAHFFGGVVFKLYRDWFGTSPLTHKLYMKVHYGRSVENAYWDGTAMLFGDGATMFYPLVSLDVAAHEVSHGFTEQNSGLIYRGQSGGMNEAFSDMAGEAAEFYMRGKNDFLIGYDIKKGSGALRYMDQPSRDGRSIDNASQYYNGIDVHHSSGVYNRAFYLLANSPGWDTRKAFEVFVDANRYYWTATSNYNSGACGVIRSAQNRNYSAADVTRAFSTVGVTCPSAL

LL37: in series [1], the “Degradation by leukocyte elastase [HNE]” value is on record as “degraded”. Also, in series [2], the “Degradation by P. aeruginosa elastase [PE]” value was “degraded”.
